Laboratory results reported in ChEMBL document CHEMBL1955845, “Antiviral effect of geraniin on human enterovirus 71 in vitro and in vivo” (Bioorg Med Chem Lett, 2012).
Values after ≈ are worked out from the molar mass of the structure shown. Active and inactive are the calls of the source. The calls are words filed in the database; no cut-off is given here.

How the values were obtained:
[1] = test system: Enterovirus A71; test: Antiviral activity against C4 type Human enterovirus 71 FY0805 infected in human RD cells assessed as inhibition of viral replication by plaque reduction assay; format: functional, organism-based; details: Enterovirus A
[2] = test system: Enterovirus A71; test: Antiviral activity against C4 type Human enterovirus 71 MP10 infected in ICR mouse assessed as increase in survival rate at 50 mg/kg, ip administered 2 hrs post infection qd for 7 days measured up to 14 days; format: functional; details: route intraperitoneal
[3] = test system: Enterovirus A71; test: Antiviral activity against C4 type Human enterovirus 71 MP10 infected in ICR mouse assessed as recovery at 0.4 mg/kg, ip administered 2 hrs post infection qd for 7 days measured up to 14 days; format: functional, organism-based; parameters: dose 0.4 mg/kg
[4] = Selectivity index, ratio of CC50 for human RD cells to IC50 for C4 type Human enterovirus 71 FY0805; format: functional
[5] = test system: Enterovirus A71; test: Antiviral activity against C4 type Human enterovirus 71 FY0805 infected in human RD cells assessed as inhibition of infectious virus yeild at 20 ug/ml treated 2 hrs post infection measured after 32 to 72 hrs by TCID50 assay relative to control; format: functional, organism-based
[6] = test system: Enterovirus A71; test: Antiviral activity against C4 type Human enterovirus 71 MP10 infected in ICR mouse assessed as inhibition of viral replication in muscle at 0.4 mg/kg, ip administered 2 hrs post infection qd for 7 days measured up to 7 days by qRT-PCR analysis; format: functional, organism-based; parameters: dose 0.4 mg/kg; details: Muscle tissue
[7] = Cytotoxicity against human RD cells; format: cell-based
[8] = test system: Mus musculus; test: Toxicity in Human enterovirus 71 MP10 infected ICR mouse at 0.4 to 1 mg/kg, ip qd for 7 days measured up to 14 days; format: organism-based; parameters: dose 0.4-1 mg/kg, route intraperitoneal; details: in vivo
[9] = test system: Enterovirus A71; test: Antiviral activity against C4 type Human enterovirus 71 FY0805 infected in human RD cells assessed as inhibition of […] at 20 ug/ml treated 2 hrs post infection measured after 32 to 72 hrs by qRT-PCR analysis relative to control; format: functional, organism-based
[10] = test system: Enterovirus A71; test: Antiviral activity against C4 type Human enterovirus 71 MP10 infected in ICR mouse assessed as delay in paralysis at 0.4 mg/kg, ip administered 2 hrs post infection qd for 7 days measured up to 14 days; format: functional, organism-based; parameters: dose 0.4 mg/kg
[11] = test system: Enterovirus A71; test: Antiviral activity against C4 type Human enterovirus 71 MP10 infected in ICR mouse assessed as disappearance of ruffled hair at 0.4 mg/kg, ip administered 2 hrs post infection qd for 7 days measured up to 14 days; format: functional, organism-based; parameters: dose 0.4 mg/kg
[12] = test system: Enterovirus A71; test: Antiviral activity against C4 type Human enterovirus 71 MP10 infected in ICR mouse assessed as delay in appearance of infection symptoms at 0.4 mg/kg, ip administered 2 hrs post infection qd for 7 days measured up to 14 days; format: functional, organism-based; parameters: dose 0.4 mg/kg
[13] = test system: Enterovirus A71; test: Antiviral activity against C4 type Human enterovirus 71 MP10 infected in ICR mouse assessed as increase in survival rate at 0.4 mg/kg, ip administered 2 hrs post infection qd for 7 days measured up to 14 days; format: functional; details: route intraperitoneal
[14] = test system: Enterovirus A71; test: Antiviral activity against C4 type Human enterovirus 71 MP10 infected in ICR mouse assessed as increase in survival rate at 1 mg/kg, ip administered 2 hrs post infection qd for 7 days measured up to 14 days; format: functional; details: route intraperitoneal
[15] = test system: Enterovirus A71; test: Antiviral activity against Human enterovirus 71 infected in mouse assessed as increase in survival rate; format: functional

Row | SMILES | IC50 [1] [µg/mL] | Activity [2] [%] | Activity [3] | Ratio CC50/IC50 [4] | inhibition [5] | inhibition [6] | CC50 [7] [µg/mL] | Activity [8] | inhibition [9] | Activity [10] | Activity [11] | Activity [12] | Activity [13] [%] | Activity [14] [%] | Activity [15] [%]
1 | NC(=O)c1ncn([C@@H]2O[C@H](CO)[C@@H](O)[C@H]2O)n1 [RIBAVIRIN] | 60 (≈ 246 µM) | 5 | – | – | – | – | – | – | – | – | – | – | – | – | –
2 | O=C1O[C@H]2[C@@H]3OC(=O)c4cc(O)c(O)c(O)c4-c4c(cc(O)c(O)c4O)C(=O)OC[C@H]2O[C@@H](OC(=O)c2cc(O)c(O)c(O)c2)[C@@H]3OC(=O)c2cc(O)c(O)c3c2[C@@H]2C1=CC(=O)[C@](O)(O3)C2(O)O [GERANIIN] | 10 (≈ 10.5 µM) | – | Active | 20 | Active | Active | 200 (≈ 210 µM) | Non-toxic | Active | Active | Active | Active | 35 | 40 | –
3 | O[C@H]1[C@H]2c3cc4c(cc3CN3CCC(=C[C@@H]1O)[C@H]23)OCO4 [LYCORINE] | – | – | – | – | – | – | – | – | – | – | – | – | – | – | 18
